Read-outs that look alike come from different tables or passages of the source.
Key:
[1] = steady-state, trough sample (pre-dose), on average; cited from earlier work
[2] = tested on: MOG-induced EAE in female C57BL/6J mice; type: in vivo, mouse
Procedure: Acute EAE Murine Model. […] The MOG murine model consists of a sensitization period, induced by the single subcutaneous (SC) injection of MOG emulsified in Complete Freund's Adjuvant (CFA) on study days 0 and 6, followed by IP supplemental immunostimulation with Pertussis Toxin (PT) carried out once at the time of EAE induction and once again 48 hours later.
Briefly, the study is performed in female C57BL/6J mice (Harlan Laboratories Israel, Ltd.) as young adults, 8-9 weeks of age at study initiation. animals are acclimatized to laboratory conditions at least 5 days. During acclimation and throughout the entire study duration, animals are housed in groups of 10 mice maximum in polypropylene cages, which are fitted with solid bottoms and filled with wood shavings as bedding material. Animals are provided ad libitum a commercial rodent diet and free access to drinking water, supplied to each cage via polyethylene bottles with stainless steel sipper tubes. Water is monitored periodically. Automatically controlled environmental conditions are set to maintain temperature at 20-24° C. with a relative humidity (RH) of 30-70%, a 12:12 hour light: dark cycle and 15-30 air changes/hr in the study room. Temperature and RH are monitored daily. The light cycle is monitored by the control clock. Weight variation of animals at the time of treatment initiation should not exceed ±20% of the mean weight. At the end of the study, surviving animals are euthanized by CO2 asphyxiation.
Antigen. […] This concentration is appropriate for the selected dose and dose volume of 200 μg MOG in 100 μL PBS.
MOG/CFA Emulsion. Prior to each inoculation carried out on study days 0 and 6, 100 μl of MOG solution (200 μg) is emulsified with 100 μl of CFA suspension (300 μg heat killed Mycobacterium Tuberculosis H37 Ra). […]
Initially, all animals are examined for signs of any neurological responses and symptoms prior to EAE induction (study day 0) and are examined on a daily basis throughout the 35-day observation period. EAE reactions are scored and recorded according to a 0-15 scale Clinical signs Scoring Methods. […]

[3] = tested on: MOG-induced EAE in female C57BL/6J mice; assay: Histological analysis of spinal cord (H&E) of EAE mice: severity score and white matter damage; type: in vivo, mouse
Source text: EXAMPLE. Histological Analysis of mice treated with pirlindole (BVA-201). Briefly, all samples are longitudinal sections of the vertebral column and spinal cord stained with hematoxylin and eosin (H&E). Sample A is the cranial part of the vertebral column and sample B is the caudal part. The modifiers F-focal, MF-multifocal, and D-diffuse are used to describe the distribution of inflammatory cellular infiltration. Diffuse is used when the lesion is continuous (at least on one side) and affects the entire SC. In some cases the lesion affects the entire SC (100%) but its distribution is multifocal because it is not contiguous i.e. there are small unaffected segments on one side, which are affected on the contralateral side. Histology analysis refers to 2 parameters: (a) Severity Score which is referring mainly but not limited to infiltration on inflammatory cells; and (b) White Matter Damage (WMD). Codes: Dist—distribution; GM—gray matter; IC—inflammatory cells; ND—not done; SC—spinal cord; Sev—severity; WM—white matter; WMD—white matter damage; WNL—within normal limits. Severity scores 0—WNL, 1—minimal, 2—mild, 3—moderate, 4—severe. Half grades are also used. Severity refers to the amount of inflammatory infiltration and WMD. If there is a discrepancy in the grade of these 2 changes, then this is noted. The extent of WMD is indicated in percentage referring to the amount of affected spinal cord tissue in the sample. In many cases the damage affected one side (dorsal or ventral) of the SC only. In some cases, when the plane of section is more lateral the WMD affects both sides. The available SC sample is considered 100%. Thus, if in a 5 cm long SC, there are changes in a 0.5 cm long segment, then this was noted as 10% irrespective of whether the damage affected one side or both. Although not reflected in the percentage, the extent of the lesion is taken into consideration in evaluation of the severity. WMD describes a set of changes including vacuolation, gliosis, and presence of myelin debris. […]

Row | Compound | Metabolite concentration as share of the clozapine concentration in plasma [1] | Activity on EAE clinical score compared to the vehicle-only treatment group (A) ([2]; group C, 1.0 mg/kg IP once daily, at the end of the study) | Activity on EAE clinical score compared to the vehicle-only treatment group (A) ([2]; group C, 1.0 mg/kg IP once daily, intermediate time points on days 30, 31, and 32, p<0.05) | Activity on EAE clinical score compared to the vehicle-only treatment group (A) ([2]; group E, 10 mg/kg IP once daily from day 0, p<0.01, starting at day 15 and continuing throughout the study (day 23, p<0.05), FIG. 1) | Demyelination / myelin repair compared to the vehicle-only treatment group ([3]; BVA-201 treatment group, general statement) | Histology mean % of white matter damage (WMD) ([3]; group F, 30 mg/kg IP, FIG. 5) | Histology mean group severity score (inflammatory infiltration) versus vehicle ([3]; groups C (1 mg/kg) and F (30 mg/kg) IP, FIG. 3)
1 | Clc1ccc2c(c1)N=C(N1CCNCC1)c1ccccc1N2 [Norclozapine] | ~70% |  |  |  |  |  | 
2 | Cc1ccc2c(c1)c1c3n2CCNC3CCC1 (stereo not shown) [Pirlindole, 2,3,3a,4,5,6-hexahydro-8-methyl-1H-pyrazino[3,2,1-j,k]carbazole] |  | not statistically significant | statistically significant | statistically significant | one or more of (a) less demyelination, (b) improved myelin repair, and/or (c) remyelination | significant protective effect | No difference

— patent US20110268699A1, “METHODS FOR TREATING MULTIPLE SCLEROSIS USING TETRACYCLIC PYRAZINOINDOLES” (BIOVISTA, INC., priority 2008, published 2011)
